The assay has as its target GABAA central benzodiazepine receptor. Description: Benzodiazepine Binding Assay ((3H)-flunitrazepam, rat whole brain except cerebellum). The settings on record: read-out: BZ binding assay (IC50); 1 nM (3H)-flunitrazepam, 60 minutes at 25° C., pH 7.4; with or without 30 μM GABA.

Structures are written as SMILES.

Usually IC50 stands for the midpoint of a concentration-inhibition curve. On to `O=c1c2c[nH]c3c(N4CCOCC4)cc(N4CCOCC4)cc3c-2nn1-c1ccccc1` [Compound 58a, 6,8-Bis(morpholin-4-yl)-2-phenyl-2,5-dihydro-pyrazolo[4,3-c]quinolin-3-one], for which the IC50 lay in the range of 1 to 1000 nM.
With `CC(C)N1CCN(c2cc(N3CCN(C(C)C)CC3)c3[nH]cc4c(=O)n(-c5ccccc5)nc-4c3c2)CC1` [Compound 58b, 6,8-Bis(4-iso-propylpiperazin-1-yl)-2-phenyl-2,5-dihydro-pyrazolo[4,3-c]quinolin-3-one], the IC50 lay within 1 to 1000 nM.

These data come from patent publication US7872002B2, “Therapeutic pyrazoloquinoline derivatives” (Helicon Therapeutics, Inc., priority 2007, dated 2011).
